Experimental data taken from patent publication US5204352A, “Compounds exhibiting anti-parasitic activity and a method for their use” (The United States of America as represented by the …, priority 1987, dated 1993).

Tested on: Trypanosoma rhodesiense
Test: In vivo trypanocidal activity in infected mice (protocol based on Rane et al.)
Design: Activity at dosage, value in parentheses (increase in survival): unit not given here
Settings: for Increase in survival / Trypanocidal activity, cures: subcutaneous; for Activity at dosage (C = Cures) / Activity at dosage, value in parentheses (increase in survival): peritoneal (Table 2)
Procedure: The compounds of the present invention were evaluated biologically in vivo with groups of 5 mice at various dose levels. Unless otherwise indicated, the data are for subcutaneous administration. Dose levels marked with an asterisk are for peritoneal administration in a HEC+T medium. In addition, Table 2 present results of peritoneal administration with substituted quanylhydrazones. The biological evaluation was done according to a standard protocol based on the method described by Rane et al., Amer. J. Trop. Med Hyg. 25:395 (1976). […]

C[n+]1c(-c2ccc(C(=N)N)cc2)cn2cc(C(=N)N)ccc21 [BK42748]
Increase in survival (26.5 mg/kg): 2.3 days | Trypanocidal activity, cures (26.5 mg/kg): 2/5 | Increase in survival (53 mg/kg): 3.0 days | Trypanocidal activity, cures (53 mg/kg): 2/5

C[n+]1c(-c2ccc(C(=N)N)cc2)c([N+](=O)[O-])n2ccccc21 [BK42757]
Increase in survival (53 mg/kg): 2.5 days | Trypanocidal activity, cures (53 mg/kg): 1/5 | Increase in survival (106 mg/kg): 3.0 days | Trypanocidal activity, cures (106 mg/kg): 1/5

Cc1ccc2n(c1)cc(-c1ccc(C(=N)N)cc1)[n+]2C [BK46166]
Increase in survival (26.5 mg/kg): 4.5 days | Trypanocidal activity, cures (26.5 mg/kg): 2/5 | Increase in survival (53 mg/kg): 1.6 days | Trypanocidal activity, cures (53 mg/kg): 2/5 | Increase in survival (106 mg/kg): 5.2 days | Trypanocidal activity, cures (106 mg/kg): 2/5

CCN(CC)CCN=C(N)NN=Cc1ccc(-c2cn3ccccc3[n+]2C)cc1 [BK46175]
Increase in survival (0.83 mg/kg, (F)): 3.3 days | Trypanocidal activity, cures (0.83 mg/kg, (F)): 2/5 | Increase in survival (0.83 mg/kg, M): 6.3 days

C[n+]1c(-c2ccc(C(N)=NO)cc2)cn2cc(Cl)ccc21 [BK46193]
Increase in survival (106 mg/kg): 5.2 days | Trypanocidal activity, cures (106 mg/kg): 1/5 | Increase in survival (212 mg/kg): 2.9 days | Trypanocidal activity, cures (212 mg/kg): 4/5

CN=C(N)NN=Cc1ccc(-c2cn3ccccc3[n+]2C)cc1 [BK46200]
Trypanocidal activity, cures (0.85-1.66 mg/kg, (M)): 5/5 | Trypanocidal activity, cures (3.33-6.65 mg/kg, (F)): 5/5

Cc1ccn2cc(-c3ccc(C=NNC(=N)N)cc3)[n+](C)c2c1 [BK46219]
Increase in survival (26.5 mg/kg): 10.0 days | Trypanocidal activity, cures (26.5 mg/kg): 8/10

CSC(=N)NN=Cc1ccc(-c2cn3ccccc3[n+]2C)cc1 [BK47921]
Trypanocidal activity, cures (26.5 mg/kg): 5/5

CN=C(N)NN=Cc1ccc(-c2c([N+](=O)[O-])n3ccccc3[n+]2C)cc1 [BK47958]
Increase in survival (1.66 mg/kg): 3.0 days | Trypanocidal activity, cures (1.66 mg/kg): 8/10

CN=C(N)NN=Cc1ccc(-c2cn3ccsc3[n+]2C)cc1 [BK47967]
Trypanocidal activity, cures (6.66 mg/kg): 5/5

CN(C)C(=N)NN=Cc1ccc(-c2cn3ccccc3[n+]2C)cc1 [BK47976]
Trypanocidal activity, cures (6.66 mg/kg): 5/5

C[n+]1c(-c2ccc(C=NNC(=N)N)cc2)c([N+](=O)[O-])n2ccccc21 [BK47985]
Increase in survival (1.6 mg/kg): 7.0 days | Trypanocidal activity, cures (1.6 mg/kg): 3/10 | Trypanocidal activity, cures (3.3 mg/kg): 5/5 | Increase in survival (6.6 mg/kg): 24.0 days | Trypanocidal activity, cures (6.6 mg/kg): 4/5

CN(C)C(=N)NN=Cc1ccc(-c2c([N+](=O)[O-])n3ccccc3[n+]2C)cc1 [BK50268]
Activity at dosage (C = Cures) (3.3 mg/kg): INAC | Activity at dosage (C = Cures) (6.7 mg/kg): INAC | Activity at dosage, value in parentheses (increase in survival) (13 mg/kg): 4.5 | Activity at dosage, value in parentheses (increase in survival) (26 mg/kg): 5.0 | Activity at dosage, value in parentheses (increase in survival) (53 mg/kg): 9.9 | Activity at dosage, value in parentheses (increase in survival) (106 mg/kg): 12.5

C[n+]1c(-c2ccc(C=NNC(=N)N3CCCC3)cc2)cn2ccccc21 [BK50277]
Trypanocidal activity, cures (0.1 mg/kg): 5/5 | Trypanocidal activity, cures (0.2 mg/kg): 4/5 | Trypanocidal activity, cures (0.4 mg/kg): 5/5 | Trypanocidal activity, cures (0.8 mg/kg): 9/10 | Trypanocidal activity, cures (1.7 mg/kg): 10/10 | Trypanocidal activity, cures (3.3 mg/kg): 5/5

C[n+]1c(-c2ccc(C=NNc3nccs3)cc2)cn2ccccc21 [BK50302]
Increase in survival (0.2 mg/kg): 2.0 days | Trypanocidal activity, cures (0.2 mg/kg): 3/5 | Trypanocidal activity, cures (0.4 mg/kg): 5/5 | Increase in survival (0.8 mg/kg): 15.0 days | Trypanocidal activity, cures (0.8 mg/kg): 4/5 | Activity at dosage (C = Cures) (106 mg/kg): INAC | Activity at dosage (C = Cures) (212 mg/kg): INAC | Activity at dosage (C = Cures) (424 mg/kg): INAC
